{"source": "patent US20260262643A1", "about": "“HERBICIDAL BENZOXAZINES” (FMC CORPORATION, priority 2022, published 2026)", "key": {"[1]": {"tested_on": "ducksalad", "test": "Test D flooded paddy test", "assay_type": "in vivo, Heteranthera limosa", "conditions": "250 g ai/ha, applied to paddy water, visual rating after 13 to 14 days, scale 0 to 100 (0 no effect, 100 complete control)", "procedure,_shortened": "(§1)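 2-leaf plants; flood 3 cm above soil; compound dosed into paddy water; greenhouse 13–14 d; visual rating vs controls, 0–100 (100 = complete control); dash = not tested.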"}, "[2]": {"tested_on": "soybean", "test": "Test C postemergence", "assay_type": "in vivo, Glycine max", "conditions": "10 days", "procedure,_shortened": "(§2)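 Visual injury ratings on a 0–100 scale (100 = complete control) were made against untreated controls 10 days after treatment in the greenhouse. Compounds, formulated with surfactant in non-phytotoxic solvent, were sprayed on soil preemergence or onto one- to two-leaf plants 2–10 cm tall postemergence.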"}, "[3]": {"tested_on": "barnyardgrass", "test": "Test C preemergence", "assay_type": "in vivo, Echinochloa crusgalli", "conditions": "0 to 100 scale (0 no effect, 100 complete control)", "procedure,_shortened": "as §2"}, "[4]": {"tested_on": "barnyardgrass", "test": "Test D flooded paddy test", "assay_type": "in vivo, Echinochloa crus-galli", "conditions": "250 g ai/ha, applied to paddy water, visual rating after 13 to 14 days, scale 0 to 100 (0 no effect, 100 complete control)", "procedure,_shortened": "as §1"}, "[5]": {"tested_on": "ragweed", "test": "Test C preemergence", "assay_type": "in vivo, Ambrosia artemisiifolia", "conditions": "0 to 100 scale (0 no effect, 100 complete control)", "procedure,_shortened": "as §2"}, "[6]": {"tested_on": "kochia", "test": "Test C preemergence", "assay_type": "in vivo, Bassia scoparia", "conditions": "0 to 100 scale (0 no effect, 100 complete control)", "procedure,_shortened": "as §2"}, "[7]": {"tested_on": "green foxtail", "test": "Test C preemergence", "assay_type": "in vivo, Setaria viridis", "conditions": "0 to 100 scale (0 no effect, 100 complete control)", "procedure,_shortened": "as §2"}, "[8]": {"tested_on": "corn", "test": "Test C preemergence", "assay_type": "in vivo, Zea mays", "conditions": "0 to 100 scale (0 no effect, 100 complete control)", "procedure,_shortened": "as §2"}, "[9]": {"tested_on": "kochia", "test": "Test C postemergence", "assay_type": "in vivo, Bassia scoparia", "conditions": "10 days", "procedure,_shortened": "as §2"}, "[10]": {"tested_on": "wheat", "test": "Test C postemergence", "assay_type": "in vivo, Triticum aestivum", "conditions": "10 days", "procedure,_shortened": "as §2"}, "[11]": {"tested_on": "rice", "test": "Test D flooded paddy test", "assay_type": "in vivo, Oryza sativa", "conditions": "250 g ai/ha, applied to paddy water, visual rating after 13 to 14 days, scale 0 to 100 (0 no effect, 100 complete control)", "procedure,_shortened": "as §1"}, "[12]": {"tested_on": "blackgrass", "test": "Test C preemergence", "assay_type": "in vivo, Alopecurus myosuroides", "conditions": "0 to 100 scale (0 no effect, 100 complete control)", "procedure,_shortened": "as §2"}, "[13]": {"tested_on": "wheat", "test": "Test C preemergence", "assay_type": "in vivo, Triticum aestivum", "conditions": "0 to 100 scale (0 no effect, 100 complete control)", "procedure,_shortened": "as §2"}, "[14]": {"tested_on": "oat, wild", "test": "Test C preemergence", "assay_type": "in vivo, Avena fatua", "conditions": "0 to 100 scale (0 no effect, 100 complete control)", "procedure,_shortened": "as §2"}, "[15]": {"tested_on": "oat, wild", "test": "Test C postemergence", "assay_type": "in vivo, Avena fatua", "conditions": "10 days", "procedure,_shortened": "as §2"}, "[16]": {"tested_on": "pigweed, palmer", "test": "Test C postemergence", "assay_type": "in vivo, Amaranthus palmeri", "conditions": "10 days", "procedure,_shortened": "as §2"}, "[17]": {"tested_on": "barnyardgrass", "test": "Test C postemergence", "assay_type": "in vivo, Echinochloa crusgalli", "conditions": "10 days", "procedure,_shortened": "as §2"}, "[18]": {"tested_on": "soybean", "test": "Test C preemergence", "assay_type": "in vivo, Glycine max", "conditions": "0 to 100 scale (0 no effect, 100 complete control)", "procedure,_shortened": "as §2"}, "[19]": {"tested_on": "galium", "test": "Test C postemergence", "assay_type": "in vivo, Galium aparine", "conditions": "10 days", "procedure,_shortened": "as §2"}, "[20]": {"tested_on": "corn", "test": "Test C postemergence", "assay_type": "in vivo, Zea mays", "conditions": "10 days", "procedure,_shortened": "as §2"}, "[21]": {"tested_on": "blackgrass", "test": "Test C postemergence", "assay_type": "in vivo, Alopecurus myosuroides", "conditions": "10 days", "procedure,_shortened": "as §2"}, "[22]": {"tested_on": "horseweed", "test": "Test C postemergence", "assay_type": "in vivo, Erigeron canadensis", "conditions": "10 days", "procedure,_shortened": "as §2"}, "[23]": {"tested_on": "sedge, umbrella", "test": "Test D flooded paddy test", "assay_type": "in vivo, Cyperus difformis", "conditions": "250 g ai/ha, applied to paddy water, visual rating after 13 to 14 days, scale 0 to 100 (0 no effect, 100 complete control)", "procedure,_shortened": "as §1"}, "[24]": {"tested_on": "ragweed", "test": "Test C postemergence", "assay_type": "in vivo, Ambrosia artemisiifolia", "conditions": "10 days", "procedure,_shortened": "as §2"}, "[25]": {"tested_on": "green foxtail", "test": "Test C postemergence", "assay_type": "in vivo, Setaria viridis", "conditions": "10 days", "procedure,_shortened": "as §2"}, "[26]": {"tested_on": "ryegrass, Italian", "test": "Test C postemergence", "assay_type": "in vivo, Lolium multiflorum", "conditions": "10 days", "procedure,_shortened": "as §2"}, "[27]": {"tested_on": "pigweed, palmer", "test": "Test C preemergence", "assay_type": "in vivo, Amaranthus palmeri", "conditions": "0 to 100 scale (0 no effect, 100 complete control)", "procedure,_shortened": "as §2"}, "[28]": {"conditions": "125 g ai/ha, postemergence, 0 to 100 scale, 0 no effect, 100 complete control"}, "[29]": {"conditions": "Postemergence, 500 g ai/ha, visual 0 to 100 scale (0 no effect, 100 complete control)"}, "[30]": {"conditions": "Preemergence, 500 g ai/ha, visual rating after 10 days"}, "[31]": {"conditions": "Test C, preemergence, 125 g ai/ha"}}, "data": [{"compound": "CSCc1ncn(-c2ccc(C)c(C(=O)N3C[C@H](C)Oc4c(Cl)cccc43)c2)n1", "note": "[Compound 178]", "values": [{"measurement": "Plant response rating, Ducksalad (Flood)", "setting": "[1]", "value": 95}, {"measurement": "Plant response rating, Soybean", "setting": "[2]; [28]", "value": 100}, {"measurement": "Plant response rating, Soybean", "setting": "[2]; [29]", "value": 100}, {"measurement": "Plant response rating, Barnyardgrass", "setting": "[3]; [30]", "value": 90}, {"measurement": "Barnyardgrass plant response rating", "setting": "[3]; [31]", "value": 20}, {"measurement": "Plant response rating, Barnyardgrass (Flood)", "setting": "[4]", "value": 15}, {"measurement": "Plant response rating, Ragweed", "setting": "[5]; [30]", "value": 50}, {"measurement": "Ragweed plant response rating", "setting": "[5]; [31]", "value": 0}, {"measurement": "Plant response rating, Kochia", "setting": "[6]; [30]", "value": 100}, {"measurement": "Kochia plant response rating", "setting": "[6]; [31]", "value": 90}, {"measurement": "Plant response rating, Foxtail, Green", "setting": "[7]; [30]", "value": 100}, {"measurement": "Foxtail, Green plant response rating", "setting": "[7]; [31]", "value": 100}, {"measurement": "Plant response rating, Corn", "setting": "[8]; [30]", "value": 50}, {"measurement": "Corn plant response rating", "setting": "[8]; [31]", "value": 20}, {"measurement": "Plant response rating, Kochia", "setting": "[9]; [28]", "value": 80}, {"measurement": "Plant response rating, Kochia", "setting": "[9]; [29]", "value": 90}, {"measurement": "Plant response rating, Wheat", "setting": "[10]; [28]", "value": 20}, {"measurement": "Plant response rating, Wheat", "setting": "[10]; [29]", "value": 50}, {"measurement": "Plant response rating, Rice (Flood)", "setting": "[11]", "value": 15}, {"measurement": "Plant response rating, Blackgrass", "setting": "[12]; [30]", "value": 90}, {"measurement": "Blackgrass plant response rating", "setting": "[12]; [31]", "value": 60}, {"measurement": "Plant response rating, Wheat", "setting": "[13]; [30]", "value": 70}, {"measurement": "Wheat plant response rating", "setting": "[13]; [31]", "value": 30}, {"measurement": "Plant response rating, Oat, Wild", "setting": "[14]; [30]", "value": 90}, {"measurement": "Oat, Wild plant response rating", "setting": "[14]; [31]", "value": 30}, {"measurement": "Plant response rating, Oat, Wild", "setting": "[15]; [28]", "value": 30}, {"measurement": "Plant response rating, Oat, Wild", "setting": "[15]; [29]", "value": 90}, {"measurement": "Plant response rating, Pigweed, Palmer", "setting": "[16]; [28]", "value": 90}, {"measurement": "Plant response rating, Pigweed, Palmer", "setting": "[16]; [29]", "value": 90}, {"measurement": "Plant response rating, Barnyardgrass", "setting": "[17]; [28]", "value": 10}, {"measurement": "Plant response rating, Barnyardgrass", "setting": "[17]; [29]", "value": 60}, {"measurement": "Plant response rating, Soybean", "setting": "[18]; [30]", "value": 80}, {"measurement": "Soybean plant response rating", "setting": "[18]; [31]", "value": 60}, {"measurement": "Plant response rating, Galium", "setting": "[19]; [28]", "value": 100}, {"measurement": "Plant response rating, Galium", "setting": "[19]; [29]", "value": 100}, {"measurement": "Plant response rating, Corn", "setting": "[20]; [28]", "value": 60}, {"measurement": "Plant response rating, Corn", "setting": "[20]; [29]", "value": 90}, {"measurement": "Plant response rating, Blackgrass", "setting": "[21]; [28]", "value": 60}, {"measurement": "Plant response rating, Blackgrass", "setting": "[21]; [29]", "value": 90}, {"measurement": "Plant response rating, Horseweed", "setting": "[22]; [28]", "value": 70}, {"measurement": "Plant response rating, Horseweed", "setting": "[22]; [29]", "value": 90}, {"measurement": "Plant response rating, Sedge, Umbrella (Flood)", "setting": "[23]", "value": 90}, {"measurement": "Plant response rating, Ragweed", "setting": "[24]; [28]", "value": 60}, {"measurement": "Plant response rating, Ragweed", "setting": "[24]; [29]", "value": 90}, {"measurement": "Plant response rating, Foxtail, Green", "setting": "[25]; [28]", "value": 20}, {"measurement": "Plant response rating, Foxtail, Green", "setting": "[25]; [29]", "value": 90}, {"measurement": "Plant response rating, Ryegrass, Italian", "setting": "[26]; [28]", "value": 80}, {"measurement": "Plant response rating, Ryegrass, Italian", "setting": "[26]; [29]", "value": 100}, {"measurement": "Plant response rating, Pigweed, Palmer", "setting": "[27]; [30]", "value": 100}, {"measurement": "Pigweed, Palmer plant response rating", "setting": "[27]; [31]", "value": 90}]}]}
